Key:
[1] = tested on: SW780 bladder cancer cell line; experiment: CellTiter-Glo viability assay, SW780; type: cell-based; conditions: 72 hours (FIG. 12)
Description: (§1) Cellular viability was assessed using the CellTiter-Glo Luminescent Cell Viability Assay (Promega) according to manufacturer protocols. Bladder cancer cell lines were seeded into 96-well plates based on optimal growth rates determined empirically for each line. Twenty-four hours after plating, cells were dosed with graded concentrations of ganetespib for 72 hours. CellTiter-Glo was added (50% v/v) to the cells, and the plates incubated for 10 minutes prior to luminescent detection in a SpectraMax Plus 384 microplate reader (Molecular Devices). Data were normalized to percent of control and IC50 values used to determine the sensitivity of each line. For the comparative analyses with ganetespib and BGJ398, RT112 cells were treated with graded concentrations of each compound for 72 hours and cell viability measured as above. For the evaluation of apoptotic induction, caspase activity was assessed using the Caspase-Glo 3/7 assay (Promega) according to manufacturer protocols. Twenty-four hours after plating, RT112 cells were treated with graded concentrations of ganetespib for 24 hours. Caspase-Glo was added to cells (50% v/v) and the plates incubated for 1 hour prior to luminescent detection.

[2] = tested on: FGFR3-TAAC3 in RT112 cells; experiment: Western blotting of FGFR3-TAAC3 and signaling proteins in RT112 cells; type: cell-based; conditions: 100 nM, 24 hours
Description: Following in vitro assays, tumor cells were disrupted in lysis buffer on ice for 10 minutes. Lysates were clarified by centrifugation and equal amounts of proteins resolved by SDS-PAGE before transfer to nitrocellulose membranes (Bio-Rad). Membranes were blocked with StartingBlock T20 blocking buffer (Thermo Scientific) and immunoblotted with the indicated antibodies. Antibody-antigen complexes were visualized using an Odyssey system (LI-COR).

[3] = tested on: RT112 bladder cancer cell line; experiment: CellTiter-Glo viability assay, RT112; type: cell-based; conditions: Homo sapiens, RT-112, 72-hour combination viability assay, single inhibitor, read-out: approximate IC50 concentrations
Description: as §1

RT112 xenografts = experiment: RT112 xenograft tumor model; type: in vivo; conditions: BGJ398 10 mg/kg p.o. daily, 3 weeks
Description: CD-1 nude mice (Charles River Laboratories, Wilmington, Mass.) at 7-12 weeks of age were maintained in a pathogen-free environment and all in vivo procedures were approved by the Synta Pharmaceuticals Corp. Institutional Animal Care and Use Committee. RT112 cells (5×10^6) were subcutaneously implanted into female mice and animals bearing established tumors (˜150 mm^3) were randomized into treatment groups of 8. Mice were i.v. dosed with ganetespib (150 mg/kg) once weekly or p.o. dosed with BGJ398 (10 mg/kg) daily, either alone or in combination, for 3 weeks. Tumor growth inhibition was monitored by tumor volume measurements twice weekly. As a measurement of in vivo efficacy, the % T/C value was determined from the change in average tumor volumes of each treated group relative to the vehicle treated animals. Statistical significance was determined using two-way ANOVA followed by Bonferroni post tests.

[4] = tested on: RT4 bladder cancer cell line; experiment: CellTiter-Glo viability assay, RT4; type: cell-based; conditions: 72 hours (FIG. 8), read-out: IC50 values
Description: as §1

Structure (SMILES): C=CCNC1=C2C[C@@H](C)C[C@H](OC)[C@H](O)[C@@H](C)/C=C(\C)[C@H](OC(N)=O)[C@@H](OC)/C=C\C=C(/C)C(=O)NC(=CC1=O)C2=O [17-AAG, 17-allylamino-17-demethoxygeldanamycin]
- cytotoxicity / sensitivity of cells (in words) [1]: acutely sensitive

Structure (SMILES): CCN1CCN(c2ccc(Nc3cc(N(C)C(=O)Nc4c(Cl)c(OC)cc(OC)c4Cl)ncn3)cc2)CC1 [BGJ398, reference compound]
- total FGFR3-TAAC3 expression [2]: did not affect
- IC50 [3]: ~5 nM
- T/C value (RT112 xenografts): −20%

Structure (SMILES): CO[C@H]1/C=C\C=C(/C)C(=O)NC2=CC(=O)C(NCCN(C)C)=C(C[C@@H](C)C[C@H](OC)[C@H](O)[C@@H](C)/C=C(\C)[C@@H]1OC(N)=O)C2=O [17-DMAG, 17-dimethylaminoethylamino-17-demethoxygeldanamycin]
- cytotoxicity / sensitivity of cells (in words) [1]: acutely sensitive

Structure (SMILES): CCNC(=O)c1noc(-c2cc(C(C)C)c(O)cc2O)c1-c1ccc(CN2CCOCC2)cc1 [AUY922]
- IC50 [4]: > 1000 nM
